Test results: patent publication US12233161B1, “Lipids and lipid nanoparticle formulations” (LONGUIDE BIOPHARMA CORPORATION, priority 2024, dated 2025)

Tested on: mice
Assay: In vivo delivery of FLuc-mRNA lipid nanoparticles in mice, in vivo imaging (IVIS)
Details: Fluc-mRNA LNP
Experimental: After the preparation was completed, the preparation was injected intramuscularly (mice rectus femoris muscle of the thigh), intravenously (mice tail vein), or intraperitoneal injection or subcutaneous injection (subcutaneous on the back), with approximately 75 μL per mouse, for a total of 3 mice. After a certain time of injection, in vivo imaging (PerkinElmer, IVIS Lumina III) was performed. 10-15 minutes before imaging, 200 μL of 15 mg/mL D-Luciferin working solution was injected intraperitoneally, and the imaging analysis was performed using an in vivo imager.

[1] = route IM, organ not given, formulation, molar ratio and N/P as in the table
[2] = route IV, organ: body, formulation, molar ratio and N/P as in the table
[3] = route IV, organ: liver, formulation, molar ratio and N/P as in the table
[4] = route IV, organ: lung, formulation, molar ratio and N/P as in the table
[5] = route IV, organ: spleen, formulation, molar ratio and N/P as in the table
[6] = route IH, organ: body, DSPE-PEG5000:DSPC:Chol:compound 1.40:11.15:38.95:48.50, N/P 30
[7] = route IH, organ: spleen, DSPE-PEG5000:DSPC:Chol:compound 1.40:11.15:38.95:48.50, N/P 30
[8] = route IM, 1 h (live), DSPE-PEG5000:DSPC:Chol:compound 1.40:11.15:38.95:48.50, N/P 30
[9] = route IM, 1 h (lung), DSPE-PEG5000:DSPC:Chol:compound 1.40:11.15:38.95:48.50, N/P 30
[10] = route IM, 1 h (spleen), DSPE-PEG5000:DSPC:Chol:compound 1.40:11.15:38.95:48.50, N/P 30
[11] = route IM, 2 h (live), DSPE-PEG5000:DSPC:Chol:compound 1.40:11.15:38.95:48.50, N/P 30
[12] = route IM, 2 h (lung), DSPE-PEG5000:DSPC:Chol:compound 1.40:11.15:38.95:48.50, N/P 30
[13] = route IM, 2 h (spleen), DSPE-PEG5000:DSPC:Chol:compound 1.40:11.15:38.95:48.50, N/P 30
[14] = route IM, 3 h (live), DSPE-PEG5000:DSPC:Chol:compound 1.40:11.15:38.95:48.50, N/P 30
[15] = route IM, 3 h (lung), DSPE-PEG5000:DSPC:Chol:compound 1.40:11.15:38.95:48.50, N/P 30
[16] = route IM, 3 h (spleen), DSPE-PEG5000:DSPC:Chol:compound 1.40:11.15:38.95:48.50, N/P 30
[17] = route IM, 6 h (live), DSPE-PEG5000:DSPC:Chol:compound 1.40:11.15:38.95:48.50, N/P 30
[18] = route IM, 6 h (lung), DSPE-PEG5000:DSPC:Chol:compound 1.40:11.15:38.95:48.50, N/P 30
[19] = route IM, 6 h (spleen), DSPE-PEG5000:DSPC:Chol:compound 1.40:11.15:38.95:48.50, N/P 30
[20] = route IH, organ: liver, DSPE-PEG5000:DSPC:Chol:compound 1.40:11.15:38.95:48.50, N/P 30
[21] = route IH, organ: lung, DSPE-PEG5000:DSPC:Chol:compound 1.40:11.15:38.95:48.50, N/P 30
[22] = route IM, organ: liver, formulation, molar ratio and N/P as in the table
[23] = route IM, organ: lung, formulation, molar ratio and N/P as in the table
[24] = route IM, organ: spleen, formulation, molar ratio and N/P as in the table

With `CCCCCCC(CCCCCC)C(=O)OCCCCCCNC(=O)C(O)CN(CCN(C)CCN(CC(O)C(=O)NCCCCCCOC(=O)C(CCCCCC)CCCCCC)CC(O)C(=O)NCCCCCCOC(=O)C(CCCCCC)CCCCCC)CC(O)C(=O)NCCCCCCOC(=O)C(CCCCCC)CCCCCC` (stereo not shown) [Compound L0359] the IVIS [1] was 2.25E+07, the IVIS [2] was 2.65E+08 and the “% of organ targeting” value [3] was 33.50%. The IVIS [3] was 5.06E+07, the “% of organ targeting” value [4] was 6.37% and the IVIS [4] was 9.61E+06. For the same compound, the “% of organ targeting” value [5] was 60.13% and the IVIS [5] was 9.08E+07.

With `CCCCCCC(CCCCCC)C(=O)OCCCCCCNC(=O)C(O)CN(CCCN(CC(O)C(=O)NCCCCCCOC(=O)C(CCCCCC)CCCCCC)CC(O)C(=O)NCCCCCCOC(=O)C(CCCCCC)CCCCCC)CCCN(CC(O)C(=O)NCCCCCCOC(=O)C(CCCCCC)CCCCCC)CC(O)C(=O)NCCCCCCOC(=O)C(CCCCCC)CCCCCC` (stereo not shown) [Compound L0360] the IVIS [1] was 1.44E+07 and the IVIS (route IV, organ not given, formulation, molar ratio and N/P as in the table) was 4.50E+08.

With `CCCCCCC(CCCCCC)C(=O)NCCOC(=O)C(O)CN(CCCN(C)CCCN(CC(O)C(=O)OCCNC(=O)C(CCCCCC)CCCCCC)CC(O)C(=O)OCCNC(=O)C(CCCCCC)CCCCCC)CC(O)C(=O)OCCNC(=O)C(CCCCCC)CCCCCC` (stereo not shown) [Compound L0361] the IVIS [6] was 1.54E+08, the IVIS [7] was 3.59E+04 and the “% of organ targeting” value [8] was 63.15%. The IVIS [8] was 6.62E+05, the “% of organ targeting” value [9] was 4.17% and the IVIS [9] was 4.37E+04. For the same compound, the IVIS (route IM, 1 h (muscle), DSPE-PEG5000:DSPC:Chol:compound 1.40:11.15:38.95:48.50, N/P 30) was 1.07E+08, the “% of organ targeting” value [10] was 31.03% and the IVIS [10] was 3.25E+05. For the same compound, the “% of organ targeting” value [11] was 58.75%, the IVIS [11] was 7.54E+06 and the “% of organ targeting” value [12] was 1.27%. For the same compound, the IVIS [12] was 1.63E+05, the IVIS (route IM, 2 h (muscle), DSPE-PEG5000:DSPC:Chol:compound 1.40:11.15:38.95:48.50, N/P 30) was 1.87E+08 and the “% of organ targeting” value [13] was 37.18%. The IVIS [13] was 4.77E+06, the “% of organ targeting” value [14] was 42.49% and the IVIS [14] was 4.54E+06. For the same compound, the “% of organ targeting” value [15] was 4.98%, the IVIS [15] was 5.32E+05 and the IVIS (route IM, 3 h (muscle), DSPE-PEG5000:DSPC:Chol:compound 1.40:11.15:38.95:48.50, N/P 30) was 2.97E+08. The “% of organ targeting” value [16] was 50.95%, the IVIS [16] was 5.45E+06 and the “% of organ targeting” value [17] was 52.52%. For the same compound, the IVIS [17] was 1.17E+07, the “% of organ targeting” value [18] was 2.72% and the IVIS [18] was 6.06E+05. The IVIS (route IM, 6 h (muscle), DSPE-PEG5000:DSPC:Chol:compound 1.40:11.15:38.95:48.50, N/P 30) was 2.62E+08, the “% of organ targeting” value [19] was 42.27% and the IVIS [19] was 9.42E+06. For the same compound, the IVIS [1] was 1.14E+08, the IVIS [2] was 4.99E+07 and the IVIS [3] was 1.24E+07. The IVIS [4] was 1.36E+07 and the IVIS [5] was 5.05E+07.

With `CCCCCCC(CCCCCC)C(=O)NCCOC(=O)C(O)CN(CCN(C)CCN(CC(O)C(=O)OCCNC(=O)C(CCCCCC)CCCCCC)CC(O)C(=O)OCCNC(=O)C(CCCCCC)CCCCCC)CC(O)C(=O)OCCNC(=O)C(CCCCCC)CCCCCC` (stereo not shown) [Compound L0362] the IVIS [6] was 1.38E+08, the “% of organ targeting” value [20] was 62.89% and the IVIS [20] was 1.80E+07. For the same compound, the “% of organ targeting” value [21] was 1.15%, the IVIS [21] was 3.28E+05 and the “% of organ targeting” value [7] was 33.19%. For the same compound, the IVIS [7] was 9.50E+06, the “% of organ targeting” value [22] was 44.30% and the IVIS [22] was 2.62E+07. For the same compound, the “% of organ targeting” value [23] was 0.77%, the IVIS [23] was 4.55E+05 and the IVIS (route IM, organ: muscle, formulation, molar ratio and N/P as in the table) was 3.43E+08. For the same compound, the “% of organ targeting” value [24] was 35.43% and the IVIS [24] was 2.09E+07.

`CCCCCCC(CCCCCC)C(=O)NCCOC(=O)C(O)CN(CCCN(CC(O)C(=O)OCCNC(=O)C(CCCCCC)CCCCCC)CC(O)C(=O)OCCNC(=O)C(CCCCCC)CCCCCC)CCCN(CC(O)C(=O)OCCNC(=O)C(CCCCCC)CCCCCC)CC(O)C(=O)OCCNC(=O)C(CCCCCC)CCCCCC` (stereo not shown) [Compound L0363] was tested, and the IVIS [1] was 2.08E+07, the IVIS [2] was 6.16E+09 and the IVIS [3] was 6.56E+08. For the same compound, the IVIS [4] was 4.56E+06 and the IVIS [5] was 9.96E+06.
